Peptide text beside a SMILES is read from it.
How the values were obtained:
[1] = test system: PDPN in A375 cells; test: Immunofluorescence binding/co-localization with PDPN, A375; format: cell-based; settings: 5 μM, 10 h, 37 ℃
Protocol: Immunofluorescence analysis was used for antigen localization and quantification. For PDPN immunofluorescence staining, melanoma cells (A375, A875) were seeded in coverslips, cultured for 24 h, and fixed using 4% paraformaldehyde for 15 min at room temperature (RT). The cells were then permeabilized with 0.2% Triton X-100 in PBS for 10 min. Cells were blocked using 1% bovine serum albumin (BSA) in PBS for 30 min at RT, and incubated with the primary antibody overnight at 4 ℃. Afterwards, cells were washed three times with PBS containing 0.01% Triton X-100 for 5 min, and incubated with Alexa Fluor 568–conjugated secondary antibodies at RT for 1 h. Lastly, the nuclei were dyed with 4’,6-diamidino-2-phenylindole (DAPI) for 5 min at RT, and the slides were imaged using a NIKON laser scanning confocal microscope. To further verify the specificity binding ability of CY12-RP2 with PDPN, immunofluorescence was detected for analysis in melanoma cells. Briefly, A375 or A875 cells were incubated with CY12-RP2 at a concentration of 5 μM for 10 h at 37 ℃, and then washed with DMEM to remove the unbound peptide. The anti-PDPN primary antibody was then incubated for 4 h at RT. Further experimental procedures were performed as described above. […]

[2] = test system: A375 xenograft tumor cells; test: TUNEL immunofluorescence of xenograft tumors; format: in vivo, BALB/c nude mice
Protocol: Fig. S4: The inhibition of cells metastasis and invasion by CY12-RP2 can be […]
(A, B) The inhibition of CY12-RP2 on the migration capacity of melanoma cell lines was reversed by SKL2001 (A). Statistical analysis was performed to determine the migrated distance (B). The power field scale bar, 100 μm. (C, D) Effect of CY12-RP2 on the invasive ability of melanoma cell lines were reversed by SKL2001 (C).
Statistical analysis was performed to count the invaded cells (D). The power field scale bar, 100 μm. (E) Western blot assay was also performed to detect the proteins related to EMT and Wnt/β-catenin signaling pathway, including N-cadherin, Vimentin, snail, Dvl2, Phospho-β-catenin-S675, β-catenin, Phospho-GSK3β-Ser9 and GSK3β by CY12-RP2 with or without SKL2001 (50 μM). Data are presented as mean ± SD. *p < […]
Fig. S5: Effects and toxicity of CY12-RP2 in vivo
(A) TUNEL analysis of apoptosis was conducted on orthotopic xenografts tumor sections using fluorescence staining. The power field scale bar, 100 μm. (B) Fluorescence staining of Ki67 was carried out on orthotopic xenograft tumor sections.
The power field scale bar, 100 μm. (C) Serum His-CY12-RP2 levels of the orthotopic xenografts mice treated by various dosage of CY12-RP2 were measured by His-ELISA kit. […]
kit. (E) Serum ALT, AST, TG, and γ-GT levels of the orthotopic xenografts model were measured by ELISA. […]

[3] = test system: A875 cells; test: Wound healing (migration), A875; format: cell-based; settings: wound healing, 0, 5, 25 μM, 24 h or 48 h
Protocol: A375 GFP, A875 GFP, A375 PDPN^−/−, and A875 PDPN^+/+ cells were all seeded in 12-well plates at a density of 5 × 10^5 cells/well. When the cells reached 100% confluence the next day, the straight wound was scraped in each cultured well with a 20 µL pipette tip. Then the cells were washed repeatedly with complete DMEM to remove the cellular debris, and the medium was changed to a low serum medium containing 0.05% FBS. The scratch-treated cells were subsequently cultured for an additional indicated time and imaged at 0 h, 12 h, 24 h and 48 h. Quantification of wound closure was accomplished by measuring the distance between the phase contrast images’ anterior edges of the contralateral surfaces using ImageJ software. As for peptide (CY12-RP2) function experiments, images of phase contrast for A375 GFP and A875 GFP cells were captured at 0 h before peptide administration. The cells were then treated with CY12-RP2 (0 μM, 5 μM, 25 μM) for 24 h or 48 h, and then images were acquired again. Handling of the experimental results were carried out as previously described.

[4] = test system: melanoma cells; test: Melanoma cell / stimulated PBMC co-culture killing; format: cell-based; settings: PBMC ratios 0%-50%, 48 h, crystal violet
Protocol: PBMCs (Shenzhen People's Hospital. Shenzhen, China)) from a healthy donor were isolated using a density gradient centrifugation procedure. Firstly, the immune cell proportions analysis of PBMCs was measured using flow cytometry. We then investigated the effect of CY12-RP2 on the cytokines in PBMCs using ELISA assays. Briefly, PBMCs (5 × 10^5 cells/well) were cultured in 24-well plates with RPMI1640 containing 10% FBS for 24 h, and the cells were stimulated with CY12-RP2 (50 µM) for 48 h. Afterward, supernatants were collected for subsequent assays. […] The experimental results were then observed by crystal violet staining after 48 h.

[5] = test system: cytokines in mouse plasma; test: Plasma cytokines in lung metastasis model (ELISA); format: in vivo, BALB/c mice; settings: lung metastases model, vs control
Protocol: The levels of major inflammatory cytokines, including TNF-α, IL-1β, IL-2, TGF-β, IFN-γ, and IL-10, were measured using an ELISA kit (Shenzhen Ziker Biological Technology, Shenzen, China). Briefly, culture supernatants of cells and serum of pulmonary metastasis mouse model were respectively collected and added to an antibody pre-coated 96-well plates, and then followed up according to the manufacturer's instructions.
For pulmonary metastasis assays, 6- to 8-week-old female BALB/c mice were administered with 5 × 10^5 B16F10-Luc cells via tail vein to establish an experimental pulmonary metastasis model of melanoma. CY12-RP2 was administered to the mice intravenously at high and low doses (25 mg/kg and 100 mg/kg) every two days, and the mice were sacrificed after 15 days of treatment. Pulmonary metastases were evaluated using bioluminescence imaging on the 2nd, 5th, 10th, 15th and 20th day after B16F10-Luc cells injection. Subsequently, the BALB/c mice were sacrificed, and the organs including the heart, liver, spleen, lung, and kidney were collected and imaged for evaluation of micrometastases. The xenografts and organs were kept in a 4% paraformaldehyde solution for subsequent histological assays.

CC(C)C[C@H](NC(=O)[C@H](Cc1ccc(O)cc1)NC(=O)[C@@H](N)[C@@H](C)O)C(=O)N[C@@H](CS)C(=O)N[C@H](C(=O)N[C@@H](C)C(=O)N[C@@H](CS)C(=O)N[C@@H](CC(=O)O)C(=O)N[C@@H](Cc1ccc(O)cc1)C(=O)N[C@H](C(=O)N[C@@H](Cc1c[nH]cn1)C(=O)N[C@@H](Cc1c[nH]cn1)C(=O)O)[C@@H](C)O)[C@@H](C)O [CY12-RP2] (H-TYLCTACDYTHH-OH; N-terminus and C-terminus assumed)
fluorescence and co-localization with PDPN [1]: strong fluorescence and co-localization
apoptotic tumor cells (TUNEL) [2]: more apoptotic tumor cells were detected
migration [3]: inhibited migration at the corresponding time both in A375 and A875 cells
viability of tumor cells with CY12-RP2-pretreated PBMC [4]: declined significantly
plasma IFN-γ [5]: significantly elevated
plasma IL-1β [5]: significantly elevated
plasma IL-2 [5]: reduced
plasma IL-10 [5]: reduced
plasma TGF-β [5]: reduced
plasma TNF-α [5]: significantly elevated

— article PMC10759609, “A novel PDPN antagonist peptide CY12-RP2 inhibits melanoma growth via Wnt/β-catenin and modulates the immune cells” (Journal of Experimental & Clinical Cancer Research : CR, 2024)
